From patent US11213516B2, “Intravaginally applicable devices comprising antiviral compounds” (AICURIS ANTI-INFECTIVE CURES GMBH, priority 2017, dated 2022)
Values joined by “and” are separate entries in the source; they are usually repeats but may differ in a detail not shown here. Equal entries are not always repeated.

How the values were obtained:
[1] = In vitro release from matrix-type silicone elastomer vaginal rings; format: physicochemical; settings: isopropanol/H2O, 37° C.
Procedure: HPLC analysis was conducted using an Agilent 1200 Series HPLC system, consisting of a quaternary HPLC pump, an auto sampler, an in-line Degasser AF Unit, a dual λ absorbance detector, and a column heater. A BDS Hypersil C18 (Thermo Scientific) column (length 150 mm, id 4.6 mm, particle size 3 μm) was used. The mobile phase comprised 45% of 1% w/v glacial acetic acid and 55% methanol pumped isocratically at a flow rate of 1 mL/min. The sample injection volume was 25 μL, the column temperature was 25° C., and detection was performed at 280 nm. Run time for the method was 5 min
Human-sized (56 mm or ×7.6 mm id), matrix-type, silicone elastomer vaginal rings containing either 25 mg or 400 mg of Pritelivir were manufactured by reaction injection molding of drug+silicone mixes. For the 25 mg rings, 272 mg Pritelivir free base or Pritelivir mesylate salt was weighed into a polypropylene Speedmixer container along with DDU-4320 silicone elastomer Part A (40 g) and Part B (40 g). After mixing (Speedmixer DAK 150 FVZ-K; 3000 rpm for 30 sec), the mixture was transferred to a 60 mL disposable plastic syringe and injected into pre-heated (90° C.) custom, two-cavity ring molds fitted to a laboratory-scale injection molding machine. After 3 minutes, the cured rings were removed from the molds. For the 400 mg rings, 4325 mg of Pritelivir free base or Pritelivir mesylate salt was weighed. Four samples of each ring type were manufactured.
Pritelivir rings were individually placed into stoppered glass flasks containing 100 mL isopropanol/H2O. The flasks were placed in a shaking orbital shaker (37° C., 60 rpm). The release medium was sampled (˜5 mL) every 24 h over a fourteen day period, with complete replacement of the 100 mL release medium at each sampling point to maintain sink conditions. Quantification of Pritelivir free base or Pritelivir mesylate salt concentrations in the samples was performed using the HPLC-UV method.

[2] = Vaginal tissue (biopsy) concentration after intravaginal administration of vaginal ring; format: in vivo, Cynomolgus monkeys; settings: 6-fold higher dose; Day 28
Procedure: (§1) The study was performed in four single dose phases with 28-day sampling period after Phases 1 and 2 (7-day washout period between doses). Vaginal rings were investigated for Pritelivir free base and Pritelivir mesylate salt at two dose levels per formulation. The test items were applied as vaginal ring in Phases 1 and 2 to female monkeys. The study design is below in the Table 3.
(§2) Vulval and vaginal biopsies were taken from all animals at the following times in relation to dosing.
(§3) For the sampling biopsies were taken with a suitable biopsy instrument. Biopsy samples were snap frozen on dry ice following collection and stored deep frozen (−20° C. or below) until analysis.
(§4) After suitable dilution, plasma and vaginal samples were analyzed on UPLC system Waters Acquity UPLC-HSS PFP column with 1.8 μm particles (100×2.1 mm) by gradient elution using 0.1% formic acid and methanol containing 0.1% formic acid. For detection, a time-of-flight mass spectrometer (Xevo GS-2 QTOF, Waters) was used operating in positive ionization mode (MSe analysis). The samples were analyzed for their content of Pritelivir free base.
Vaginal and vulval biopsies were taken 28 Days after administration of intravaginal rings. As biopsies were not weighed prior extraction, weights were estimated based on data from similar investigations using the same settings for biopsies. […]

[3] = Vulval tissue (biopsy) concentration after intravaginal administration of vaginal ring; format: in vivo, Cynomolgus monkeys; settings: ring 40 mg free base; Phase 1; Day 28; per animal; biopsy weight estimated
Procedure: as §1, §2, §3, §4
Vaginal and vulval biopsies were taken 28 Days after administration of intravaginal rings. As biopsies were not weighed prior extraction, weights were estimated based on data from similar investigations using the same settings for biopsies. From this study minimum, maximum, and mean biopsy weight was used for the calculation. These biopsy weights ranged from 0.7 to 6.3 mg, mean 2.95 mg. For all calculations it was assumed that 1 kg tissue is equal to 1 L water.

[4] = Safety and tolerance of Pritelivir loaded rings (clinical signs, body weights); format: in vivo, Cynomolgus monkeys; settings: single vaginal doses as rings: 40 or 240 mg free base, 49.6 or 297 mg mesylate
Procedure: as §1
The study was designed to obtain information on the time-course of unchanged test compound concentrations in plasma and vaginal fluid/tissue, following single intravaginal administration of rings to female Cynomolgus monkeys. Objectives of this study were to determine the safety and tolerance of Pritelivir loaded rings, as well as systemic and local exposure (plasma, vaginal fluid and vaginal and vulval tissue, respectively). Local exposures were compared with in vitro efficacy data of Pritelivir to get an idea on initial pharmacokinetic/pharmacodynamic (PK/PD) parameters for vaginal rings, i.e. to assess the potential ability of a Pritelivir loaded ring to suppress viral replication in the target tissue. Table 9 gives an overview on the EC50 values of Pritelivir on HSV-1 and HSV-2 Data source: Field, H. J., et al., Baseline sensitivity of HSV-1 and HSV-2 clinical isolates and defined acyclovir-resistant strains to the helicase-primase inhibitor pritelivir. Antiviral Res, 2013. 100(2): p. 297-9. […]

What does the source list for `Cc1nc(N(C)C(=O)Cc2ccc(-c3ccccn3)cc2)sc1S(N)(=O)=O` [Pritelivir free base]?
Cumulative Day 14 release ([1]; 25 mg matrix-type ring): 604.13 µg; Mean Day 1 release ([1]; 25 mg matrix-type ring): 122.17 µg; Mean Day 14 release ([1]; 25 mg matrix-type ring): 24.77 µg; Release rate ([1]; 25 mg matrix-type ring): 177.0 µg/day; Cumulative Day 14 release ([1]; 400 mg matrix-type ring): 2,495.52 μg; Mean Day 1 release ([1]; 400 mg matrix-type ring): 443.45 µg; Mean Day 14 release ([1]; 400 mg matrix-type ring): 102.16 µg; Release rate ([1]; 400 mg matrix-type ring): 752.5 µg/day; Increase of vaginal tissue concentrations, Phase 2 vs Phase 1 [2]: 2 fold; Vulval tissue concentration of Pritelivir free base, Max [3]: <2.0 µg/g and 0.134 µg/g and 0.742 µg/g; Vulval tissue concentration of Pritelivir free base, Mean [3]: <2.0 µg/g and 0.0318 µg/g and 0.176 µg/g; Vulval tissue concentration of Pritelivir free base, Min [3]: <2.0 µg/g and 0.0149 µg/g and 0.0825 µg/g; Adverse findings for clinical signs or body weights [4]: did not result in any adverse findings
